# From publication PMC6720883, “In Vitro Inhibitory Effects of APINACA on Human Major Cytochrome P450, UDP-Glucuronosyltransferase Enzymes, and Drug Transporters” (Molecules, 2019)
# What was measured:
# OAT3 = biological target: T1, OAT3 (Homo sapiens, UniProt Q8TCC7); assay: Uptake of [3-H]estrone-3-sulfate in HEK293-OAT3 cells; assay type: in vitro ADME; conditions: for Transport Rate (pmol/min) (mean ± SD): 0.1 μM probe substrate, n=3
# T1 construct: host or cells: HEK293 (transient overexpression)
# T1 sequence (Q8TCC7 1-542): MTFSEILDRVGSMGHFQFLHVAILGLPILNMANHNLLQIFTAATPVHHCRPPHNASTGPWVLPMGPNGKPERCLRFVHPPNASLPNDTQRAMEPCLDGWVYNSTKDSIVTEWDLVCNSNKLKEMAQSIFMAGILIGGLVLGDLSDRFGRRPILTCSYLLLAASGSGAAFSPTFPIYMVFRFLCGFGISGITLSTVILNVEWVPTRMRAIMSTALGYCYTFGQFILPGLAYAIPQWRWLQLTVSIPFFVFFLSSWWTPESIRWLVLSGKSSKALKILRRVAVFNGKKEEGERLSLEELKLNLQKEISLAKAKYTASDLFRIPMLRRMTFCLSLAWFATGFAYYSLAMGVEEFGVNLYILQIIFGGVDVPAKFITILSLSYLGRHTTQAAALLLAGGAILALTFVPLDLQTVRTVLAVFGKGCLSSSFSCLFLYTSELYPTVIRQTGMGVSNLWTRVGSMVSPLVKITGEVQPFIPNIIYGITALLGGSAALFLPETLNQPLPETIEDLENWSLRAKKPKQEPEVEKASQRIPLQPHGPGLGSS
# Description: The concentrations and probe substrates were selected as follows: 0.1 μM [3-H]MPP^+ (for OCT1 and OCT2), 0.1 μM [3-H]PAH (for OAT1), 0.1 μM [3-H]ES (for OAT3 and OATP1B1), and 0.1 μM [3-H]EG (for OATP1B3).
# (§1) 1.1 (Systat Software, Inc.).
# BCRP = biological target: T2, BCRP (Homo sapiens, UniProt Q9UNQ0); assay: B to A transport of [3-H]estrone-3-sulfate in LLC-PK1-BCRP cells; assay type: in vitro ADME; conditions: for Transport Rate (pmol/min) (mean ± SD): 0.1 μM probe substrate, B to A, n=3
# T2 sequence (Q9UNQ0 1-655): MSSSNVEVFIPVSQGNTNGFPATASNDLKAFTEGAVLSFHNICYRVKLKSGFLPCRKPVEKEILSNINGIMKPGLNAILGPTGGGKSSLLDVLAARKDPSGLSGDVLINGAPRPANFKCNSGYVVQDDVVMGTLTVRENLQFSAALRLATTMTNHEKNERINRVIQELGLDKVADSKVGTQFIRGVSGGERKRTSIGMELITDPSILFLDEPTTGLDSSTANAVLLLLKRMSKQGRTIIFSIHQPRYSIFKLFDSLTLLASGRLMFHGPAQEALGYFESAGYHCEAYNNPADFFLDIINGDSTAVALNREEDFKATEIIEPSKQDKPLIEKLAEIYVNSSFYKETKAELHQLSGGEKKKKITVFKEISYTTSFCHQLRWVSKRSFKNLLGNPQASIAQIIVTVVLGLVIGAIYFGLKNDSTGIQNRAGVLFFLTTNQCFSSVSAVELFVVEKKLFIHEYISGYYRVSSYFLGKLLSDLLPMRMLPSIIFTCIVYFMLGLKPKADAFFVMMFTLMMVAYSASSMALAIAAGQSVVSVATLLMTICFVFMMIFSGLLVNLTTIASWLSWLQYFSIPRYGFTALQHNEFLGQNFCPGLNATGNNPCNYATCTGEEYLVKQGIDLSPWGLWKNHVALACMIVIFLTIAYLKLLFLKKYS
# OATP1B1 = biological target: T3, OATP1B1 (Homo sapiens, UniProt Q9Y6L6); assay: Uptake of [3-H]estrone-3-sulfate in HEK293-OATP1B1 cells; assay type: in vitro ADME; conditions: for Transport Rate (pmol/min) (mean ± SD): 0.1 μM probe substrate, n=3
# T3 construct: host or cells: HEK293 (transient overexpression)
# T3 sequence (Q9Y6L6 1-691): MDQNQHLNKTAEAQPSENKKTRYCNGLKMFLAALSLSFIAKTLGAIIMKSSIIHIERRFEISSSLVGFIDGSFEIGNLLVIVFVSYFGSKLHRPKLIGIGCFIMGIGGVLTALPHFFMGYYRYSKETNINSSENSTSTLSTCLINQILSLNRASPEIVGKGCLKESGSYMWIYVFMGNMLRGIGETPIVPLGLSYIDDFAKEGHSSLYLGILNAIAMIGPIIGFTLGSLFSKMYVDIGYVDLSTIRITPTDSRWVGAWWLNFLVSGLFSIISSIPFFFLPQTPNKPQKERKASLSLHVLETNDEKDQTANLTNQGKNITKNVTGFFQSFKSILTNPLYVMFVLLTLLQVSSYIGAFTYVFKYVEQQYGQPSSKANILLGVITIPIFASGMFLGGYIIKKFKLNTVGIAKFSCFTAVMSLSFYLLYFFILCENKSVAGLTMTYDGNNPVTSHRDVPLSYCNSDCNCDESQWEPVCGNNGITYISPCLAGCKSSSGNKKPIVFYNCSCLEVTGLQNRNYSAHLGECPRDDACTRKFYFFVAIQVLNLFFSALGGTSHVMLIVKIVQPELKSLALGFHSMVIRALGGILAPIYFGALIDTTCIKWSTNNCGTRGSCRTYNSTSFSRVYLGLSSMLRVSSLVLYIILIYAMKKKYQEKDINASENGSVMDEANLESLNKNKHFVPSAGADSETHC
# Description: (§2) To examine the effects of APINACA and typical inhibitors on transporter activity, the uptake of a probe substrate into HEK293 cells overexpressing the respective solute carrier transporters was measured in the presence of APINACA (final concentrations of 0–250 μM) or typical inhibitors for 5 min. The concentrations and probe substrates were selected as follows: 0.1 μM [3-H]MPP^+ (for OCT1 and OCT2), 0.1 μM [3-H]PAH (for OAT1), 0.1 μM [3-H]ES (for OAT3 and OATP1B1), and 0.1 μM [3-H]EG (for OATP1B3).
# (§3) 12.5 (Systat Software, Inc.; San Jose, CA, USA). […] 1.1 (Systat Software, Inc.).
# OCT2 = biological target: T4, OCT2 (Homo sapiens, UniProt O15244); assay: Uptake of [3-H]methyl-4-phenylpyridinium in HEK293-OCT2 cells; assay type: in vitro ADME; conditions: HEK293-OCT2 cells; 0.1 μM [3-H]methyl-4-phenylpyridinium; 5 min uptake; read-out: IC50 for inhibition of OCT2 transport
# T4 construct: host or cells: HEK293 (transient overexpression)
# T4 sequence (O15244 1-555): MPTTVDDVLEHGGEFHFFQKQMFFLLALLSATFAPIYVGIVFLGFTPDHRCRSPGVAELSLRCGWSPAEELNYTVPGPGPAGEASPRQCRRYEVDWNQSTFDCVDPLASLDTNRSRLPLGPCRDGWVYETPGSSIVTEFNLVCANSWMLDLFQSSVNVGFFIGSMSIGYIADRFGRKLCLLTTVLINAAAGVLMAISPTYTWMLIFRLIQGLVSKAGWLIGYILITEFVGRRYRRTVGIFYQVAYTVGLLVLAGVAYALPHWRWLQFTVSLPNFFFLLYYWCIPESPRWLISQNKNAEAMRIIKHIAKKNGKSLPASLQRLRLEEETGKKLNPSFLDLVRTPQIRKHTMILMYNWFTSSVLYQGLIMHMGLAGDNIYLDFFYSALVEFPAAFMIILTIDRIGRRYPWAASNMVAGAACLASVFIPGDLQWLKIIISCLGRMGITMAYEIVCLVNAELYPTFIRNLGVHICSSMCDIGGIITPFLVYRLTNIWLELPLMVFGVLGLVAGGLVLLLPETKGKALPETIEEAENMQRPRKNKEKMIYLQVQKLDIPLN
# Description: as §2, §3
# UGT1A9 = biological target: T5, UGT1A9 (Homo sapiens, UniProt O60656); conditions: read-out: Ki for inhibition of UGT1A9 activities; recombinant and human liver microsomal UGT1A9; cited from earlier work
# T5 sequence (O60656 26-530): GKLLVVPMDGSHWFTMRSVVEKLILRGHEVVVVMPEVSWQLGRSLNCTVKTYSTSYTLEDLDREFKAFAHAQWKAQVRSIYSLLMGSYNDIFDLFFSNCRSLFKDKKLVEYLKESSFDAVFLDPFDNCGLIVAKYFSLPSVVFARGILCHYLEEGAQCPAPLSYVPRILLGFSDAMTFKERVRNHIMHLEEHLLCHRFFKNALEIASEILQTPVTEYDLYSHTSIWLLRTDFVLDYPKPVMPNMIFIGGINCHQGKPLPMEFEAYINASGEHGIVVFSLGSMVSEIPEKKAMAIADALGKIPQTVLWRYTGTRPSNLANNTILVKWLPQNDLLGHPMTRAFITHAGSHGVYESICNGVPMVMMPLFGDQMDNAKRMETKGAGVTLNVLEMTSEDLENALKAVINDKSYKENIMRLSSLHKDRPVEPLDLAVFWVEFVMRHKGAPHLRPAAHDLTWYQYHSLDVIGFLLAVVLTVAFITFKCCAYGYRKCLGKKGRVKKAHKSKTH
# P-glycoprotein (P-gp) = P-glycoprotein (P-gp) (Homo sapiens, UniProt P08183); assay: B to A transport of [3-H]digoxin in LLC-PK1-MDR1 cells; conditions: for Transport Rate (pmol/min) (mean ± SD): 0.1 μM probe substrate, B to A, n=3
# Chain of P-glycoprotein (P-gp) (P08183 whole entry): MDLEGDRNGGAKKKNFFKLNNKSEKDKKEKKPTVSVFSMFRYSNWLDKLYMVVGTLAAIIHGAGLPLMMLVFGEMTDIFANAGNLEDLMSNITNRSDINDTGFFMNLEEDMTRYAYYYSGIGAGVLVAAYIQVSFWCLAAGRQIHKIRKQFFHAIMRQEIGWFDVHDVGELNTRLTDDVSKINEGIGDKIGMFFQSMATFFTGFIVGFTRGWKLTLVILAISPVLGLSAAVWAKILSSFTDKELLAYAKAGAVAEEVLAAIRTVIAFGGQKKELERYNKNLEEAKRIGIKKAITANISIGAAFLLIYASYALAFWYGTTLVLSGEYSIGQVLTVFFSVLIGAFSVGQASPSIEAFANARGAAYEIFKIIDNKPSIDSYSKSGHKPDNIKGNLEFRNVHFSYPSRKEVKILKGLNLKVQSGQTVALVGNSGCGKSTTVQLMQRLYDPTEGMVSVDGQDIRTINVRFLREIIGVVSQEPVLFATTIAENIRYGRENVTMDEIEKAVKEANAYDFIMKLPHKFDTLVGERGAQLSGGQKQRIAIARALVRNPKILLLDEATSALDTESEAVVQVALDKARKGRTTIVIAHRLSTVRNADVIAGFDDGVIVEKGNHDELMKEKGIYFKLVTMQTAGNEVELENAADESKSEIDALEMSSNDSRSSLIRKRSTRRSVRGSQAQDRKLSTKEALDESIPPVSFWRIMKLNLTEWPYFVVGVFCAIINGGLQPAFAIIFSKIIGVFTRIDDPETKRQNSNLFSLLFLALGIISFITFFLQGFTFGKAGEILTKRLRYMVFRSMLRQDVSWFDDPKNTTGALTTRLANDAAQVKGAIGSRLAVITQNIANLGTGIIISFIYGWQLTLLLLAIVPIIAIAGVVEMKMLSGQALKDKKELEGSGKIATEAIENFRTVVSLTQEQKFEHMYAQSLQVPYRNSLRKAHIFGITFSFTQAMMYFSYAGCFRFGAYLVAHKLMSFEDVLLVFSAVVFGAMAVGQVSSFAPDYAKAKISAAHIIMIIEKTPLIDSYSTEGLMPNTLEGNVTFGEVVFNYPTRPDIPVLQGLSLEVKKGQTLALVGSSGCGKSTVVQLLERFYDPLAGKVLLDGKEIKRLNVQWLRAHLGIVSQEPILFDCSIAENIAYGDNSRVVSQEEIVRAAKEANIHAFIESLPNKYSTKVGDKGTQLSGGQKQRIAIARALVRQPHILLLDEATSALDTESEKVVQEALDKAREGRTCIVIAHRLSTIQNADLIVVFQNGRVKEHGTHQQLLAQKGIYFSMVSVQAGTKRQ
# Description: The cells were seeded onto filter membranes at a density of 2 × 10^5 cells/well for 5 days with TEER values over 450 Ω·cm^2. The B to A transport of 0.1 μM [3-H]digoxin in LLC-PK1-MDR1 cells was measured by adding 1.5 mL of HBSS containing APINACA (final concentrations of 0–100 μM) on the basal side and by adding 0.5 mL of HBSS without APINACA on the apical side of the insert using protocols identical to those described above.
# as §1
smiles,measurement,setting,value
C[C@]12CC[C@@H]3c4ccc(OS(=O)(=O)O)cc4CC[C@H]3[C@@H]1CCC2=O [Estrone-3-sulfate],Fold Increase of transport rate,OAT3; HEK293-OAT3 versus Mock,15.3
same,Transport Rate (pmol/min) (mean ± SD),OAT3; HEK293 Mock cells (comparison for OAT3),0.98 ± 0.20 pmol/min
same,Transport Rate (pmol/min) (mean ± SD),OAT3; HEK293 cells overexpressing OAT3,14.96 ± 3.09 pmol/min
same,Fold Increase of transport rate,BCRP; LLC-PK1-BCRP versus Mock,4.7
same,Transport Rate (pmol/min) (mean ± SD),BCRP; LLC-PK1 Mock cells (comparison for BCRP),0.44 ± 0.07 pmol/min
same,Transport Rate (pmol/min) (mean ± SD),BCRP; LLC-PK1 cells overexpressing BCRP,2.09 ± 0.12 pmol/min
same,Fold Increase of transport rate,OATP1B1; HEK293-OATP1B1 versus Mock,16.5
same,Transport Rate (pmol/min) (mean ± SD),OATP1B1; HEK293 Mock cells (comparison for OATP1B1),0.76 ± 0.04 pmol/min
same,Transport Rate (pmol/min) (mean ± SD),OATP1B1; HEK293 cells overexpressing OATP1B1,12.58 ± 1.57 pmol/min
CN/C(=N/CCSCc1nc[nH]c1C)NC#N [Cimetidine],IC50,OCT2,197 µM
CCOc1ccc(Cc2cc([C@@H]3O[C@H](CO)[C@@H](O)[C@H](O)[C@H]3O)ccc2Cl)cc1 [dapagliflozin],Ki,UGT1A9,11 to 15 µM
C[C@H]1O[C@@H](O[C@H]2[C@@H](O)C[C@H](O[C@H]3[C@@H](O)C[C@H](O[C@H]4CC[C@@]5(C)[C@H](CC[C@@H]6[C@@H]5C[C@@H](O)[C@]5(C)[C@@H](C7=CC(=O)OC7)CC[C@]65O)C4)O[C@@H]3C)O[C@@H]2C)C[C@H](O)[C@@H]1O [Digoxin],Fold Increase of transport rate,P-glycoprotein (P-gp); LLC-PK1-MDR1 versus Mock,7.3
same,Transport Rate (pmol/min) (mean ± SD),P-glycoprotein (P-gp); LLC-PK1 Mock cells (comparison for MDR1),0.14 ± 0.02 pmol/min
same,Transport Rate (pmol/min) (mean ± SD),P-glycoprotein (P-gp); LLC-PK1 cells overexpressing MDR1 (P-gp),1.06 ± 0.07 pmol/min
